The test system of one test is B16 mouse melanoma cells. The experiment in a line: cell viability in the B16 cell-based assay (Viability, B16 IC50). The method in brief: (§1)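 Both lines undergo the phenotypic GM3 assay, and viability is recorded from that same cell-based run.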
The target in test [1] is T1, glucosylceramide synthase (Homo sapiens, UniProt Q16739).
T1 construct: Microsomes were isolated from A375 human melanoma cells; endogenous in cells; host or cells: A375 human melanoma cells (microsomal fraction, 100,000 g pellet)
T1 sequence (Q16739 1-394): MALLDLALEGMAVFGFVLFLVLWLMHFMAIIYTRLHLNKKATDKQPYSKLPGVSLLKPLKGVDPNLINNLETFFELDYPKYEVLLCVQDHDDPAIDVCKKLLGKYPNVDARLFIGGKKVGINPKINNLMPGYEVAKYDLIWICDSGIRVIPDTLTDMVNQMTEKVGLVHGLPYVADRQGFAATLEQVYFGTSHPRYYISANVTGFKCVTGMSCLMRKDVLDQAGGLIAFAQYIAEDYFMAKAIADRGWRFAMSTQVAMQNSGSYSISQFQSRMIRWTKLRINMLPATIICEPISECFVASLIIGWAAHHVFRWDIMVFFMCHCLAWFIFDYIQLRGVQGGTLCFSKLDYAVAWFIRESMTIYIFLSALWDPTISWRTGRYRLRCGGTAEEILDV
The experiment in a line: microsomal assay measuring conversion of ceramide to glucosylceramide by HPLC (GCS IC50). Type of test: biochemical. The settings on record: concentration causing 50% inhibition of glucosylceramide synthase activity. An outline of the steps:
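Microsomal preparation assayed for glucosylceramide synthase by direct HPLC measurement of ceramide conversion to glucosylceramide. GCS IC50 is the compound concentration giving 50% inhibition of enzyme activity.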

Another test concerns C32 human melanoma cells. Put plainly: cell viability in the C32 cell-based assay (Viability, C32 IC50). The settings on record: concentration causing 50% cell death, values greater than 10 represent a lack of cell death. The method in brief: as §1
For test [2], the system named is GM3 expression on the cell surface, B16 mouse melanoma cells. Put plainly: cell based phenotypic assay, cell surface GM3 by antibody mediated immunofluorescence, B16 (GM3 B16 IC50). The following applies: 50% inhibition of GM3 expression on the cell surface. An outline of the steps: (§2)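 B16 mouse and C32 human melanoma cells; cell-surface GM3 measured by antibody-mediated immunofluorescence, giving IC50.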

In test [3] the test system is GM3 expression on the cell surface, C32 human melanoma cells. Put plainly: cell based phenotypic assay, cell surface GM3 by antibody mediated immunofluorescence, C32 (GM3 C32 IC50). The following applies: 50% inhibition of GM3 expression on the cell surface. An outline of the steps:
as §2

The mark [4] stands for this setting: Mus musculus, B16, B16 cells, concentration causing 50% cell death, values greater than 10 represent a lack of cell death, read-out: Viability, B16 IC50.
Where [5] appears, read: Homo sapiens, C32, C32 cells, read-out: Viability, C32 IC50.
The mark [6] stands for this setting: Mus musculus, B16 mouse melanoma cells, read-out: GM3 B16 IC50.
Setting [7] is: Homo sapiens, C32 human melanoma cells, read-out: GM3 C32 IC50.
[8] abbreviates: Mus musculus, B16, read-out: Viability, B16 IC50.
The mark [9] stands for this setting: Homo sapiens, C32, read-out: Viability, C32 IC50, C32 cells.
[10] abbreviates: Mus musculus, read-out: GM3 B16 IC50, B16 mouse melanoma cells.
Setting [11] is: Homo sapiens, read-out: GM3 C32 IC50, C32 human melanoma cells.
Where [12] appears, read: B16 cells, concentration causing 50% cell death, values greater than 10 represent a lack of cell death, read-out: Viability, B16 IC50.
[13] abbreviates: C32 cells, read-out: Viability, C32 IC50.
[14] abbreviates: B16 mouse melanoma cells, read-out: GM3 B16 IC50.
The mark [15] stands for this setting: C32 human melanoma cells, read-out: GM3 C32 IC50.

The values that follow come from patent US12060349B2, “Glucosylceramide synthase inhibitors” (Genzyme Corporation, priority 2012, dated 2024).

Read-outs that look alike come from different tables or passages of the source.

With `CC(C)(C)CCS(=O)(=O)c1ccc(C#CC(C)(C)NC(=O)NC2(C)CCN3CCC2CC3)cc1` (centres unmarked) [Example 336, 1-(4-(4-((3,3-Dimethylbutyl)sulfonyl)phenyl)-2-methylbut-3-yn-2-yl)-3-(4-methyl-1-azabicyclo[3.2.2]nonan-4-yl)urea], the IC50 was no less than 10 µM in the test with B16 mouse melanoma cells (setting [4]); 0.0012 µM in test [1]; no less than 10 µM with C32 human melanoma cells (setting [5]); 0.0388 µM in test [2] (setting [6]); 0.000902 µM in test [3] (setting [7]).

Consider `CC(C)(C)CCS(=O)(=O)c1ccc(C#CC(C)(C)NC(=O)NC2(C)CN3CCC2CC3)cc1` (centres unmarked) [Example 337, 1-(4-(4-((3,3-Dimethylbutyl)sulfonyl)phenyl)-2-methylbut-3-yn-2-yl)-3-(3-methylquinuclidin-3-yl)urea], for which the IC50 turned out to be 2.15 µM in the test with B16 mouse melanoma cells (setting [4]); 0.0145 µM in test [1]; 1 µM in the test on C32 human melanoma cells (setting [5]); 0.0941 µM in test [2] (setting [6]); 0.00254 µM in test [3] (setting [7]).

`CCC1(NC(=O)NC(C)(C)C#Cc2ccc(S(=O)(=O)CCC(C)(C)C)cc2)CN2CCC1CC2` (centres unmarked) [Example 338, 1-(4-(4-((3,3-Dimethylbutyl)sulfonyl)phenyl)-2-methylbut-3-yn-2-yl)-3-(3-ethylquinuclidin-3-yl)urea]: the IC50 with B16 mouse melanoma cells (setting [4]) came to 2.15 µM; in test [1], 0.00445 µM; in the test on C32 human melanoma cells (setting [5]) it was 1 µM; in test [2] (setting [6]), 0.0721 µM; in test [3] (setting [7]), 0.000984 µM.

As for `COCC(C)(C)c1ccc(C#CC(C)(C)NC(=O)NC2(C)CN3CCC2CC3)cc1` (centres unmarked) [Example 339, 1-(4-(4-(1-Methoxy-2-methylpropan-2-yl)phenyl)-2-methylbut-3-yn-2-yl)-3-(3-methylquinuclidin-3-yl)urea], the IC50 was no less than 10 µM in the test with B16 mouse melanoma cells (setting [4]); 0.136 µM in test [1]; no less than 10 µM in the test on C32 human melanoma cells (setting [5]); 0.72 µM in test [2] (setting [6]); 0.0257 µM in test [3] (setting [7]).

Take `COCCCOc1ccc(-c2nc(C(C)(C)NC(=O)OC3CN4CCC3CC4)cs2)cc1` (centres unmarked) [Example 340, Quinuclidin-3-yl (2-(2-(4-(3-methoxypropoxy)phenyl)thiazol-4-yl)-propan-2-yl)carbamate]: the 50% inhibitory concentration (IC50) with B16 mouse melanoma cells (setting [8]) was no less than 10 µM; in test [1], 0.17 µM; in the test with C32 human melanoma cells (setting [9]), no less than 10 µM; in test [2] (setting [10]), 0.197 µM; in test [3] (setting [11]), 0.0426 µM.

With `COCCCOc1ccc(-c2nc(C(C)(C)NC(=O)OC3CCN4CCC3CC4)cs2)cc1` (centres unmarked) [Example 341, 1-Azabicyclo[3.2.2]nonan-4-yl (2-(2-(4-(3-methoxypropoxy)phenyl)thiazol-4-yl)propan-2-yl)carbamate], the IC50 in the test on B16 mouse melanoma cells (setting [4]) is no less than 10 µM; in test [1], 0.0193 µM; in the test on C32 human melanoma cells (setting [5]), no less than 10 µM; in test [2] (setting [6]) it was 0.0904 µM; in test [3] (setting [7]) it was 0.00719 µM.

Take `COCCCOc1ccc(-c2nc(C(C)(C)NC(=O)N3CCN4CCC3CC4)cs2)cc1` [Example 342, N-(2-(2-(4-(3-Methoxypropoxy)phenyl)thiazol-4-yl)propan-2-yl)-1,4-diazabicyclo[3.2.2]nonane-4-carboxamide]: the IC50 in the test on B16 mouse melanoma cells (setting [4]) is no less than 10 µM; in test [1], 0.666 µM; in the test on C32 human melanoma cells (setting [5]) it was no less than 10 µM; in test [2] (setting [6]) it was 0.393 µM; in test [3] (setting [7]), 0.0851 µM.

Turning to `COCCOc1ccc(-c2nc(C(C)(C)NC(=O)OC3CN4CCC3CC4)cs2)cc1` (centres unmarked) [Example 343, Quinuclidin-3-yl (2-(2-(4-(2-methoxyethoxy)phenyl)thiazol-4-yl)propan-2-yl)carbamate], the IC50 in the test with B16 mouse melanoma cells (setting [8]) is no less than 10 µM; in test [1] it was 0.36 µM; with C32 human melanoma cells (setting [9]), 1 µM; in test [2] (setting [10]), 0.106 µM; in test [3] (setting [11]) it was 0.0198 µM.

As for `COCCOc1ccc(-c2nc(C(C)(C)NC(=O)OC3CCN4CCC3CC4)cs2)cc1` (centres unmarked) [Example 344, 1-Azabicyclo[3.2.2]nonan-4-yl (2-(2-(4-(2-methoxyethoxy)phenyl)thiazol-4-yl)propan-2-yl)carbamate], the IC50 in the test on B16 mouse melanoma cells (setting [4]) is no less than 10 µM; in test [1] it was 0.0658 µM; in the test on C32 human melanoma cells (setting [5]), 1 µM; in test [2] (setting [6]), 0.0564 µM; in test [3] (setting [7]) it was 0.00876 µM.

`COCCOc1ccc(-c2nc(C(C)(C)NC(=O)N3CCN4CCC3CC4)cs2)cc1` [Example 345, N-(2-(2-(4-(2-Methoxyethoxy)phenyl)thiazol-4-yl)propan-2-yl)-1,4-diazabicyclo[3.2.2]nonane-4-carboxamide]: the IC50 in the test on B16 mouse melanoma cells (setting [4]) was no less than 10 µM; in test [1] it was 2.54 µM; in the test with C32 human melanoma cells (setting [5]), 3.16 µM; in test [2] (setting [6]), 0.369 µM; in test [3] (setting [7]) it was 0.091 µM.

Consider `COCCOc1ccc(-c2ccc(C(C)(C)NC(=O)OC3CN4CCC3CC4)nc2)cc1` (centres unmarked) [Example 346, Quinuclidin-3-yl 2-(5-(4-(2-methoxyethoxy)phenyl)pyridin-2-yl)propan-2-ylcarbamate], for which the IC50 with B16 mouse melanoma cells (setting [8]) is no less than 10 µM; in test [1], 0.0507 µM; in the test with C32 human melanoma cells (setting [9]), 3.16 µM; in test [2] (setting [10]), 0.266 µM; in test [3] (setting [11]) it was 0.0111 µM.

For the compound `COCCOc1ccc(-c2ccc(C(C)(C)NC(=O)OC3CCN4CCC3CC4)nc2)cc1` (centres unmarked) [Example 347, 1-Azabicyclo[3.2.2]nonan-4-yl 2-(5-(4-(2-methoxyethoxy)phenyl)pyridin-2-yl)propan-2-ylcarbamate], the concentration for half-maximal inhibition (IC50) in the test with B16 mouse melanoma cells (setting [4]) was no less than 10 µM; in test [1], 0.0368 µM; with C32 human melanoma cells (setting [5]), 1.41 µM; in test [2] (setting [6]) it was 0.15 µM; in test [3] (setting [7]), 0.00582 µM.

On to “N-(2-(4-(4-(Methylcarbamoyl)phenoxy)phenyl)propan-2-yl)-1,4-diazabicyclo[3.2.2]nonane-4-carboxamide [Example 305]”, for which the IC50 in the test on B16 mouse melanoma cells (setting [12]) was no less than 10 µM; in test [1] it was 0.399 µM; in the test on C32 human melanoma cells (setting [13]), 1 µM; in test [2] (setting [14]), 0.299 µM; in test [3] (setting [15]), 0.0195 µM.

On to “N-(4-Methyl-1-azabicyclo[3.2.2]nonan-4-yl)-4-(3-(pyrimidin-5-yl)phenyl)piperazine-1-carboxamide [Example 27]”, for which the IC50 was no less than 10 µM in the test on B16 mouse melanoma cells (setting [12]); 16.5 µM in test [1]; no less than 10 µM in the test on C32 human melanoma cells (setting [13]); greater than 10 µM in test [2] (setting [14]); 0.798 µM in test [3] (setting [15]).

Consider “Quinuclidin-3-yl (2-(4′-(2-methoxyethoxy)-[1,1′-biphenyl]-3-yl)propan-2-yl)carbamate [Example 175]”, for which the IC50 in the test on B16 mouse melanoma cells (setting [12]) was no less than 10 µM; in test [1], 0.0025 µM; in the test with C32 human melanoma cells (setting [13]) it was 9 µM; in test [2] (setting [14]), 0.0713 µM; in test [3] (setting [15]), 0.00187 µM.

Regarding “Quinuclidin-3-yl (2-(4′-((2-methoxyethoxy)methyl)-[1,1′-biphenyl]-3-yl)propan-2-yl)carbamate [Example 203]”, the IC50 in the test with B16 mouse melanoma cells (setting [12]) was no less than 10 µM; in test [1], 0.0296 µM; in the test on C32 human melanoma cells (setting [13]), 1.78 µM; in test [2] (setting [14]) it was 0.0963 µM; in test [3] (setting [15]), 0.00653 µM.
